Where “and” joins values, the source holds several entries; their conditions need not be identical. Equal entries are not always repeated. Entries after “also recorded” stand apart in the source; their conditions may differ. Where two headings read alike, the source gives them in different places.
Legend:
[1] = 7-day repeated oral dose toxicity study in rats
Protocol: A repeated oral dose toxicity and separate toxicokinetics (TK) study were performed in male rats by WuXi AppTec Company (Suzhou, China). […] Animals were individually housed in solid bottom plastic cages with bedding in compliance with the US Animal Welfare Act. All rat studies were performed using ∼8-week-old Sprague-Dawley male rats (Rattus novegicus)/Crl: CD[SD] […] Cage side clinical observations of condition and behavior (i.e., gait, stool, activity level, atonia, coat soiling and grooming, skin turgor, posture, priapism, piloerection) were performed twice daily during the dosing phase, and weights and food consumption were measured daily. At termination, all study animals were evaluated for erythrocyte count, absolute reticulocyte count, alkaline phosphatase, and triglycerides by fasting the animals overnight and obtaining blood from the abdominal aorta at necropsy as a terminal procedure under deep anesthesia (pentobarbital). A complete necropsy and histopathologic studies (hematoxylin and eosin staining) of large intestine, small intestine, stomach, and any gross lesions were performed on all animals on day 7 of dosing. […] Serum was collected from vehicle-control animals at 1 h and 4 h after dosing on days 1 and 7. […] Following completion of blood collection, TK animals were euthanized by CO2 inhalation and exsanguination without necropsy.

[2] = system: C. parvum (University of Arizona Iowa isolate); format: in vivo, C57BL/6 IFN-γ−/− mice
Protocol: Interferon gamma (IFN-γ) knockout mice were used to model acute Cryptosporidium infection. All IFN-γ knockout mouse studies were performed in compliance with animal care guidelines and were approved by the Explora BioLabs (San Diego, CA) Institutional Animal Care and Use Committee. Four-week-old female C57BL/6 IFN-γ^−/− mice with normal flora were purchased from The Jackson laboratory and acclimated for 3 days prior to infection by oral gavage with ∼10^6 C. parvum Iowa isolate oocysts (Sterling Laboratory, University of Arizona) suspended in sterile distilled water. At the indicated times following infection, mice were treated with compound vehicle alone, clofazimine (positive control), or once daily AN7973 at the indicated doses. Fecal parasite shedding was measured by isolating oocysts using sucrose gradient centrifugation. Sheather’s sucrose solution was freshly prepared by dissolving 156.25 g sucrose and 2.5 mL phenol in 100 mL water. Two sucrose solutions were prepared: (A) specific gravity of 1.103 (33% Sheather’s and 0.1% Tween 80 in PBS) and (B) specific gravity of 1.064 (20% Sheather’s and 0.1% Tween 80 in PBS). In a 2 mL microfuge tube, a gradient was prepared by laying 0.75 mL of solution A, then carefully laying 0.75 mL of solution B, slowly as to prevent mixing of the two layers. Fecal pellets were removed from storage, and homogenized by vortexing and pipetting. 0.2 mL fecal homogenate was overlaid on top of gradient in each microfuge tube. Oocysts were floated from feces by centrifugation at 1000 × g for 20 min and collected with a pipet tip from the 1.064/1.103 specific gravity interface between solutions A and B. Oocysts were rinsed once in cold PBS, pelleted by centrifugation at 15,000 × g for 10 min, and resuspended in PBS. Isolated oocysts were then stained with a fluorescein isothiocyanate-conjugated mouse anti-Cryptosporidium antibody (Bio-Rad catalog# 2402-3007 F; 0.25 µg per sample) and quantified using a Guava EasyCyte flow cytometer and CytoSoft data acquisition software (version 5.3; Guava Technologies, Inc.). Oocysts per milliliter of sample were normalized to counts per milligram of feces.

[3] = Liver microsome Clint (mouse); format: in vitro ADME; conditions: liver microsomes
[4] = system: CYP450 (2B6, 1A2, 2C9, 2C19, 2D6, 3A4); test: CYP450 inhibition, 6 isoforms; format: in vitro ADME; conditions: @ 10 µM
[5] = system: 109 off-target enzymes and receptors; test: Lead Profiling and Adverse Reaction Enzyme off-target panel; format: binding; conditions: 10 µM
Protocol: In vitro safety profiling studies were conducted by Ricerca Biosciences (Taipei, Taiwan) and WuXi AppTec (Suzhou, China). Ricerca performed a Lead Profiling and Adverse Reaction Enzyme panel of 109 off-target enzymes and receptors. This included the hERG K+ ion channel, which is associated with cardiac tachyarrhythmias, and used a radioligand binding competition format with 10 µM test compound for 1 h at 25 °C. For the enzyme and receptor panel, competitive inhibition at 10 µM of test compound was the most common assay format. The AMES bacterial reverse mutation assay detects point mutations in Escherichia coli and Salmonella typhimurium as an indicator of mutagenic activity. Bacterial strains were obtained from Molecular Toxicology (Boone, NC).

[6] = system: MDR1 (P-gp); test: in vitro; conditions: dog
[7] = Cytotoxicity Jurkat (3d); format: cell-based; conditions: human, Jurkat cells, 25 µM highest concentration tested
[8] = system: C. parvum (Bunch Grass Farms Iowa isolate); test: NOD scid gamma (NSG) mouse model of established C. parvum infection; format: in vivo, NOD scid gamma mice; conditions: for reduction of parasite shedding: after 4 days of treatment
Protocol: NOD scid gamma mice (NOD.Cg-Prkdcscid Il2rgtm1Wjl/SzJ)[55] (NSG) were used to model chronic Cryptosporidium infection. All NSG mouse studies were performed in compliance with animal care guidelines and with approval by the University of Vermont Institutional Animal Care and Use Committee. NSG mice with normal flora were purchased from The Jackson Laboratory (Bar Harbor, ME) and were housed for at least a week for acclimatization. […] Fecal parasite shedding was measured using a quantitative PCR (qPCR) assay, and the primers named above as Cp18s forward and Cp18s reverse.

Question: With `CC1(C)OB(O)c2cc(NC(=O)c3ccc(-n4cccn4)cc3Cl)ccc21` [AN7973] as the molecule, how does the tolerability in rats ([1]; 80 mg per kg per day oral gavage, seven days, male rats) read?
Answer: The tolerability in rats was “well tolerated”.

Question: What about the “Alkaline phosphatase on day 8” value ([1]; 80 mg·kg-1·d-1, mean ± SD) of the same molecule?
Answer: The value was 188 ± 17 U·L-1.

Question: What about the “Average weight on day 1” value ([1]; 80 mg·kg-1·d-1, mean ± SD) of the same molecule?
Answer: Its value is 260.24 g.

Question: And the “Average weight on day 7” value ([1]; 80 mg·kg-1·d-1, mean ± SD)?
Answer: Its value is 305.36 ± 8.8 g.

Question: What about the “Reticulocyte count on day 8” value ([1]; 80 mg·kg-1·d-1, mean ± SD) of the same molecule?
Answer: The value was 563.2 ± 66.6 ×10^9 per L.

Question: And the “Total food consumption (days 1-7)” value ([1]; 80 mg·kg-1·d-1, mean ± SD)?
Answer: The value was 156.1 ± 10.1 g.

Question: And the “Triglycerides on day 8” value ([1]; 80 mg·kg-1·d-1, mean ± SD)?
Answer: The value was 0.39 ± 0.16 mmol/L.

Question: What about the “Mortality (unscheduled deaths)” value ([1]; 80 mg·kg-1·d-1, n=5) of the same molecule?
Answer: The value was 0.

Question: And the “fecal oocyst shedding, individual mice” value ([2]; 10 mg/kg QD from day 4, day p.i. 8)?
Answer: Its value is 5.45 and 13 (2×) and 10.

Question: What about the “fecal oocyst shedding, individual mice” value ([2]; 10 mg/kg QD from day 4, day p.i. 14) of the same molecule?
Answer: The value was 11 and 15 (2×) and 21.

Question: And the “fecal oocyst shedding, individual mice” value ([2]; 25 mg/kg QD from day 4, day p.i. 7)?
Answer: Its value is 3 (2×) and 6 and 9.

Question: What about the “efficacy in IFN-γ KO mouse” value ([2]; 5, 10, 25 mg per kg once daily oral, efficacy at 10 mg per kg, maximal efficacy similar to clofazimine) of the same molecule?
Answer: The value was “dose-dependent efficacy”.

Question: What about the “adverse effects in IFN-γ KO mice” value ([2]; mouse, in vivo) of the same molecule?
Answer: Its value is “no adverse effects”.

Question: What about the microsomal CLint [3] of the same molecule?
Answer: Its microsomal CLint is < 1 µL/min/mg.

Question: And the “CYP450 inhibition (in 6 isoforms – 2B6, 1A2, 2C9, 2C19, 2D6, 3A4)” value [4]?
Answer: The value was “Negative”.

Question: What about the “In vitro Receptor Panel (109 targets)” value [5] of the same molecule?
Answer: Its value is “Negative; also recorded: no significant findings”.

Question: What about the Papp ([6]; MDCK-MDR1, MDCK-MDR1 Papp) of the same molecule?
Answer: Its Papp is 56.5 ×10⁻⁶ cm/s.

Question: And the Papp ([6]; MDCK-MDR1, MDCK-MDR1 Papp + Pgp inhibitor)?
Answer: The Papp was 60.6 ×10⁻⁶ cm/s.

Question: And the IC50 at 3 d [7]?
Answer: The IC50 at 3 d was > 25 µM.

Question: What about the “reduction of parasite shedding” value ([8]; 10 mg per kg once daily oral gavage) of the same molecule?
Answer: Its value is > 90%.

Question: And the “parasite fecal shedding (qPCR), individual mice” value (“parasite fecal shedding (qPCR)” below) ([8]; 10 mg/kg, D7 (before treatment))?
Answer: The value was 58.681 oocysts/mg feces and 43.169 oocysts/mg feces and 158.993 oocysts/mg feces and 120.558 oocysts/mg feces.

Question: What about the “parasite fecal shedding (qPCR)” value ([8]; 10 mg/kg, D11) of the same molecule?
Answer: Its value is 7.142 oocysts/mg feces and 1.830 oocysts/mg feces and 16.882 oocysts/mg feces and 7.589 oocysts/mg feces.

Question: What about the “reduction of parasite shedding” value ([8]; 25 mg per kg once daily oral gavage) of the same molecule?
Answer: The value was > 99%.

Question: And the “parasite fecal shedding (qPCR)” value ([8]; 25 mg/kg, D7 (before treatment))?
Answer: Its value is 379.464 oocysts/mg feces and 632.650 oocysts/mg feces and 267.595 oocysts/mg feces and 299.397 oocysts/mg feces.

Question: What about the “parasite fecal shedding (qPCR)” value ([8]; 25 mg/kg, D11, ND = not detected, lower limit of detection 0.1) of the same molecule?
Answer: Its value is 0.825 oocysts/mg feces.

Question: What about the “adverse effects in NSG mice” value ([8]; treated NSG mice gained weight normally) of the same molecule?
Answer: The value was “no adverse effects were observed”.

From PMC6597546, “Identification of a potent benzoxaborole drug candidate for treating cryptosporidiosis” (Nature Communications, 2019)
